# Data as given in patent EP0007672A1, “Isocyanoalkenes, process and useful intermediates for their preparation, pharmaceutical and fungicidal preparations containing those isocyanoalkenes and the use of the fungicidal preparations in agriculture” (GIST-BROCADES N.V., priority 1978, dated 1980).
# Like-named read-outs stand apart in the source and are kept apart here.
# How the values were obtained:
# Assay in all cases: MIC (Minimum Inhibitory Concentration)
# Type in all cases: cell-based
# Trichophyton verrucosum = test system: Trichophyton verrucosum
# [1] = test system: Trichophyton schoenleinii; conditions: Trichophyton schoenleinii 435-63; read-out: MIC values
# [2] = test system: Trichophyton soudanese joyeux; conditions: Trichophyton soudanese joyeux 440-63; read-out: MIC values
# Trichophyton rubrum = test system: Trichophyton rubrum
# [3] = test system: Streptococcus haemolyticus; conditions: Streptococcus haemolyticus A 1088; read-out: MIC values
# Trichophyton tonsurans = Trichophyton tonsurans 561-50; read-out: MIC values
# Trichophyton equinum = test system: Trichophyton equinum
# [4] = test system: Trichophyton mentagrophytus
# Trichophyton quickeaneum = Trichophyton quickeaneum A 2040; read-out: MIC values
# Candida albicans = test system: Candida albicans
# Pasteurella multocida = Pasteurella multocida A 723; read-out: MIC values
# Trichophyton violoceum = Trichophyton violoceum 442-62; read-out: MIC values
# [5] = Trichophyton verrucosum 134-66, read-out: MIC values
# [6] = Trichophyton rubrum 218-65, read-out: MIC values
# [7] = Trichophyton rubrum 494-62, read-out: MIC values
# [8] = Trichophyton rubrum A 810, read-out: MIC values
# [9] = Trichophyton equinum 441-51, read-out: MIC values
# [10] = Trichophyton equinum 856-71, read-out: MIC values
# [11] = Trichophyton mentagrophytus 367-68, read-out: MIC values
# [12] = Trichophyton mentagrophytus 421-67, read-out: MIC values
# [13] = Trichophyton mentagrophytus A 3252, read-out: MIC values
# [14] = Trichophyton mentagrophytus R 177, read-out: MIC values
# [15] = Trichophyton mentagrophytus R 178, read-out: MIC values
# [16] = Trichophyton mentagrophytus RRL 305, read-out: MIC values
# [17] = Candida albicans A 7, read-out: MIC values
# [18] = Candida albicans A 3140, read-out: MIC values
# [19] = Candida albicans A 3141, read-out: MIC values
# [20] = Candida albicans A 3142, read-out: MIC values
# [21] = Candida albicans A 3143, read-out: MIC values
# [22] = Candida albicans A 3144, read-out: MIC values
# [23] = Candida albicans A 3145, read-out: MIC values
# [24] = Candida albicans A 3165, read-out: MIC values
# [25] = Candida albicans A 3166, read-out: MIC values
# [26] = Candida albicans A 3167, read-out: MIC values
# [27] = Candida albicans A 3168, read-out: MIC values
# [28] = Candida albicans A 3169, read-out: MIC values
# [29] = Candida albicans A 3171, read-out: MIC values
# [30] = Candida albicans A 3184, read-out: MIC values
# [31] = Candida albicans A 3190, read-out: MIC values
# [32] = Candida albicans A 3191, read-out: MIC values
# [33] = Candida albicans A 3192, read-out: MIC values
# [34] = Candida albicans A 3194, read-out: MIC values
# [35] = Candida albicans A 3196, read-out: MIC values
MIC (Trichophyton verrucosum; [5]),MIC [1],MIC [2],MIC (Trichophyton rubrum; [6]),MIC (Trichophyton rubrum; [7]),MIC (Trichophyton rubrum; [8]),MIC (Trichophyton tonsurans),MIC (Trichophyton equinum; [9]),MIC (Trichophyton equinum; [10]),"MIC [4, 11]","MIC [4, 12]","MIC [4, 13]","MIC [4, 14]","MIC [4, 15]","MIC [4, 16]",MIC (Candida albicans; [17]),MIC (Candida albicans; [18]),MIC (Candida albicans; [19]),MIC (Candida albicans; [20]),SMILES,MIC [3],further results
< 0.05 µg/mL,0.4 µg/mL,6 µg/mL,1.5 µg/mL,1.5 µg/mL,0.8 µg/mL,6 µg/mL,0.4 µg/mL,< 0.05 µg/mL,1.5 µg/mL,6 µg/mL,1.5 µg/mL,3 µg/mL,> 100 µg/mL,1.5 µg/mL,0.8 µg/mL,0.4 µg/mL,0.8 µg/mL,1.5 µg/mL,"[C-]#[N+]C(=Cc1ccc(Cl)cc1)S(=O)(=O)c1ccc(C)cc1 [Example 11, 1-isocyanv-2-(4-chlorophenyl)-1-(4-toluenesulphonyl)-ethene]",3 µg/mL,"MIC (Trichophyton verrucosum; Trichophyton verrucosum A 2922, read-out: MIC values): 0.4 µg/mL; MIC (Trichophyton equinum; Trichophyton equinum 182-76, read-out: MIC values): 3 µg/mL; MIC (Trichophyton quickeaneum): 1.5 µg/mL; MIC (Candida albicans; [21]): 1.5 µg/mL; MIC (Candida albicans; [22]): 1.5 µg/mL; MIC (Candida albicans; [23]): 1.5 µg/mL; MIC (Candida albicans; [24]): 1.5 µg/mL; MIC (Candida albicans; [25]): 1.5 µg/mL; MIC (Candida albicans; [26]): 1.5 µg/mL; MIC (Candida albicans; [27]): 0.8 µg/mL; MIC (Candida albicans; [28]): 1.5 µg/mL; MIC (Candida albicans; [29]): 1.5 µg/mL; MIC (Candida albicans; [30]): 1.5 µg/mL; MIC (Candida albicans; [31]): 1.5 µg/mL; MIC (Candida albicans; [32]): 1.5 µg/mL; MIC (Candida albicans; [33]): 1.5 µg/mL; MIC (Candida albicans; [34]): 1.5 µg/mL; MIC (Candida albicans; [35]): 3 µg/mL; MIC (Pasteurella multocida): 6 µg/mL; MIC (Trichophyton violoceum): 0.1 µg/mL"
1.5 µg/mL,3 µg/mL,3 µg/mL,3 µg/mL,6 µg/mL,3 µg/mL,1.5 µg/mL,1.5 µg/mL,25 µg/mL,3 µg/mL,12.5 µg/mL,12.5 µg/mL,6 µg/mL,6 µg/mL,6 µg/mL,1.5 µg/mL,3 µg/mL,3 µg/mL,3 µg/mL,"[C-]#[N+]C(=C(C)c1ccc([N+](=O)[O-])cc1)S(=O)(=O)c1ccc(C)cc1 [Example 22, 1-isocyano-2-(4-nitrophenyl)-1-(4-toluenesulphonyl)-1-propene]",0.8 µg/mL,MIC (Candida albicans; [21]): 1.5 µg/mL; MIC (Candida albicans; [22]): 3 µg/mL; MIC (Candida albicans; [23]): 3 µg/mL; MIC (Candida albicans; [24]): 3 µg/mL; MIC (Candida albicans; [25]): 1.5 µg/mL; MIC (Candida albicans; [26]): 1.5 µg/mL; MIC (Candida albicans; [27]): 3 µg/mL; MIC (Candida albicans; [28]): 3 µg/mL; MIC (Candida albicans; [29]): 3 µg/mL; MIC (Candida albicans; [30]): 1.5 µg/mL; MIC (Candida albicans; [31]): 3 µg/mL; MIC (Candida albicans; [32]): 3 µg/mL; MIC (Candida albicans; [33]): 3 µg/mL; MIC (Candida albicans; [34]): 1.5 µg/mL; MIC (Candida albicans; [35]): 3 µg/mL; MIC (Pasteurella multocida): 6 µg/mL; MIC (Trichophyton violoceum): 3 µg/mL
6 µg/mL,25 µg/mL,6 µg/mL,50 µg/mL,> 100 µg/mL,50 µg/mL,0.4 µg/mL,0.4 µg/mL,> 100 µg/mL,50 µg/mL,> 100 µg/mL,> 100 µg/mL,100 µg/mL,> 100 µg/mL,> 100 µg/mL,6 µg/mL,12.5 µg/mL,12.5 µg/mL,12.5 µg/mL,"[C-]#[N+]C(=Cc1cccn1C)S(=O)(=O)c1ccc(C)cc1 [Example 30, 2-[1-isocyano-1-(4-toluenesulphonyl)-ethen-2-yl]-1-methylpyrrole]",25 µg/mL,MIC (Candida albicans; [21]): 6 µg/mL; MIC (Candida albicans; [22]): 6 µg/mL; MIC (Candida albicans; [23]): 12.5 µg/mL; MIC (Candida albicans; [24]): 6 µg/mL; MIC (Candida albicans; [25]): 6 µg/mL; MIC (Candida albicans; [26]): 3 µg/mL; MIC (Candida albicans; [27]): 12.5 µg/mL; MIC (Candida albicans; [28]): 6 µg/mL; MIC (Candida albicans; [29]): 12.5 µg/mL; MIC (Candida albicans; [30]): 6 µg/mL; MIC (Candida albicans; [31]): 12.5 µg/mL; MIC (Candida albicans; [32]): > 100 µg/mL; MIC (Candida albicans; [33]): 6 µg/mL; MIC (Candida albicans; [34]): 12.5 µg/mL; MIC (Candida albicans; [35]): 12.5 µg/mL; MIC (Pasteurella multocida): 25 µg/mL; MIC (Trichophyton violoceum): 6 µg/mL
